US20050250110A1, “PNA conjugate for treating chronic myeloid leukemia (CML)” (priority 2001, published 2005)

How the values were obtained:
[1] = test system: tumor cell line K562 (Ph-positive); assay: Growth behavior of K562 cells following administration of PNA conjugates (cell number, Coulter Counter); assay type: cell-based
tumor cell line K562 = assay: Apoptosis behavior of K562 cells: cell number after 24 h treatment and subsequent PNA removal; assay type: cell-based; conditions: 100 nM for 24 h
Description: The cell number change is shown on a time axis. The treatment was carried out for 24 h and by means of subsequent PNA removal. Final concentration: 100 nM. Dark blue line: AS conjugate; magenta: random sequence conjugate; yellow: AS-non-ligated; blue: untreated control.
The question of the apoptosis behavior following the administration of a conjugate according to the invention (corresponding to Example 3 and FIG. 6) was studied as such. The incubation period was 24 hours with 5% CO2 at 37° C. in an incubator. Having removed the medium mixture and carrying out a wash step twice using fresh RPMI-1640, the same volume of fresh medium was added by pipetting and further cultured. The medium was changed every 72 hours. The cultures were treated as before: As in the previous experiment, a break-down of the untreated culture was again found after about 72 hours. […] The relative stability up to 144 hours following the removal of antisense NLS-PNA was striking in the culture treated with antisense NLS-PNA.

Transport peptide (penetratin)-disulfide bridge-NLS—KK(FITC)—PNA^BCR/Abl (sequence of PNA^BCR/Abl: H2N-TGCGTGTGGATGATTCTTTGTTTTAA-COOH) [antisense NLS penetratin]
phenotype of the treated cells ([1]; 100 nM, in contrast to the controls): vital phenotype
stabilization of the cell number, time after the treatment ([1]; final concentration 100 nM, treatment throughout the experiment): 24 h
growth behavior (cell number change on a time axis) ([1]; final concentration 100 nM, treatment throughout the experiment, compared with untreated control): stagnation of the cell proliferation
relative stability of the culture, time following PNA removal (tumor cell line K562; then PNA removal): up to 144 hours
time of the maximum cell number following PNA removal (tumor cell line K562; then PNA removal): 120 h
cell growth / cell number after PNA removal (tumor cell line K562; then PNA removal and further culture, medium changed every 72 hours): minor increase in the cell number
